Here are results for 2 molecules from publication PMC6211260 (Journal of Enzyme Inhibition and Medicinal Chemistry, 2018).

Type in all cases: cell-based
The subject of assay [1] is T-47D cell line. The assay can be described thus: NCI-60 single-dose screening. The following applies: 10 µM. The method, then:
(§1) Screening against the cancer cell lines was carried out at the National Cancer Institute (NCI, Bethesda, Maryland, USA) applying the standard protocol of the NCI[22].
(§2) The final target compounds were submitted to the National Cancer Institute (NCI), Maryland, USA[23]. Thirty-one compounds were selected to be tested over 60 cell lines at single dose 10 µM.

Assay [2] deals with NCI-60 cell line panel. The experiment in a line: NCI-60 single-dose (10 µM) antiproliferative screening, mean over panel. Particulars: single-dose 10 µM. The method, then: as §1, §2
Assay [3] relates to non-small cell lung cancer cell lines. The assay can be described thus: NCI five-dose testing, subpanel mean. Particulars: subpanel II: non-small cell lung cancer. Here is the method: as §1
Assay [4] relates to Leukaemia cell lines. The assay can be described thus: NCI five-dose testing, subpanel mean. Particulars: subpanel I: Leukaemia. Here is the method:
as §1

In assay [5] the test system is prostate cancer cell lines. The assay can be described thus: NCI five-dose testing, subpanel mean. The following applies: subpanel VIII: prostate cancer. The method, then:
as §1

Assay [6] has as its system renal cancer cell lines. The assay can be described thus: NCI five-dose testing, subpanel mean. Particulars: subpanel VII: renal cancer. The method, then: as §1
Assay [7] relates to ovarian cancer cell lines. The experiment in a line: NCI five-dose testing, subpanel mean. The following applies: subpanel VI: ovarian cancer. Here is the method:
as §1

Assay [8] relates to CNS cancer cell lines. The experiment in a line: NCI five-dose testing, subpanel mean. The following applies: subpanel IV: CNS cancer. Here is the method:
as §1

Assay [9] has as its system breast cancer cell lines. The experiment in a line: NCI five-dose testing, subpanel mean. Particulars: subpanel IX: breast cancer. Here is the method: as §1
The subject of assay [10] is melanoma cell lines. The experiment in a line: NCI five-dose testing, subpanel mean. The following applies: subpanel V: melanoma. The method, then:
as §1

In assay [11] the test system is colon cancer cell lines. The experiment in a line: NCI five-dose testing, subpanel mean. The following applies: subpanel III: colon cancer. The method, then:
as §1

Assay [12] concerns HT29 colon cancer cell line. The assay can be described thus: NCI-60 single-dose screening. Particulars: 10 µM. Here is the method:
as §1, §2

Assay [13] concerns SK-MEL-5 melanoma cell line. The experiment in a line: NCI-60 single-dose screening. The following applies: 10 µM. The method, then: as §1, §2
In assay [14] the test system is Colo 205 colon cancer cell line. The experiment in a line: NCI-60 single-dose screening. Particulars: 10 µM. Here is the method: as §1, §2
Assay [15] concerns OVCAR-4 ovarian cancer cell line. The experiment in a line: NCI five-dose testing. The following applies: Homo sapiens. Here is the method:
as §1

The test system of assay [16] is SK-MEL-5 melanoma cell line. The experiment in a line: NCI five-dose testing. The following applies: Homo sapiens. The method, then:
as §1

Assay [17] relates to U251 CNS cancer cell line. The experiment in a line: NCI five-dose testing. The following applies: Homo sapiens. The method, then: as §1
For assay [18], the system named is K-562 leukaemia cell line. The assay can be described thus: NCI five-dose testing. The following applies: Homo sapiens. Here is the method:
as §1

Assay [19] has as its system MDA-MB-468 breast cancer cell line. The assay can be described thus: NCI five-dose testing. The following applies: Homo sapiens. Here is the method:
as §1

Assay [20] relates to A498 renal cancer cell line. The assay can be described thus: NCI five-dose testing. Particulars: Homo sapiens. Here is the method: as §1
For assay [21], the system named is HT-29 colon cancer cell line. The assay can be described thus: NCI five-dose testing. The following applies: Homo sapiens. The method, then:
as §1

Assay [22] has as its system HOP-92 non-small cell lung cancer cell line. The experiment in a line: NCI five-dose testing. Particulars: Homo sapiens. Here is the method:
as §1

Assay [23] relates to PC-3 prostate cancer cell line. The assay can be described thus: NCI five-dose testing. The following applies: Homo sapiens. The method, then: as §1

For orientation: inhibition means the relative decrease from the control value, in per cent. Read a high inhibition as a response far below the control. As a reminder, the IC50 is the point on the concentration scale where inhibition reaches its midpoint.

Regarding `COc1cccc(-c2nn(-c3ccccc3)cc2-c2ccnc(NCCCNS(=O)(=O)c3ccc(Br)cc3)c2)c1` [Compound 2b, 4-Bromo-N-(3-((4-(3-(3-methoxyphenyl)-1-phenyl-1H-pyrazol-4-yl)pyridin-2-yl)amino)propyl) benzenesulfonamide], the per cent inhibition in assay [1] came out at 83.30%.
With `COc1cccc(-c2nn(-c3ccccc3)cc2-c2ccnc(NCCCNS(=O)(=O)c3ccc(C(F)(F)F)cc3)c2)c1` [Compound 2g, N-(3-((4-(3-(3-Methoxyphenyl)-1-phenyl-1H-pyrazol-4-yl)pyridin-2-yl)amino)propyl)-4-(trifluoromethyl)benzenesulfonamide], in assay [2] (60-cancer cell line screening), 10 µM produced 76.5% inhibition. The “number of cell lines with more than 100% inhibition” value in [2] (NCI-60 panel) is 13. In addition, the IC50 in assay [3] is 6.36 µM; in assay [4], 3.35 µM; in [5], 13 µM; in assay [6], 5.32 µM; in assay [7], 6.1 µM; in [8], 5.28 µM. Moreover, the IC50 was 4.05 µM in assay [9]; 4.94 µM in assay [10]; 4.91 µM in assay [11]; 4.36 µM in [15] (OVCAR-4); 2.18 µM in [16] (SK-MEL-5); 5.63 µM in assay [17] (U-251, U251, read-out: IC50). Further, the IC50 in assay [18] (K562, K-562) came out at 3.06 µM; in assay [19] (MDA-MB-468), 3.11 µM; in [20] (A498), 3.8 µM; in [21] (HT-29, read-out: IC50), 3.21 µM; in assay [22] (HOP-92) it was 3.68 µM; in assay [23] (PC-3, read-out: IC50) it was 3.36 µM. Further, the per cent inhibition result in [12], in [13] and in [14] was “lethal effect” in each case. The LC50 (lethal concentration 50) is above 100 µM in assay [15] (OVCAR-4, read-out: LD50 (lethal dose 50)); 23.1 µM in assay [16] (SK-MEL-5, read-out: LD50 (lethal dose 50)); above 100 µM in [23] (PC-3, read-out: LD50 (lethal dose 50)). For the same molecule, the IC (TGI) in [15] (OVCAR-4, read-out: TGI (total growth inhibition concentration)) was above 100 µM; in assay [16] (SK-MEL-5, read-out: TGI (total growth inhibition concentration)), 5 µM; in [17] (U-251, U251, read-out: TGI (total growth inhibition concentration)) it was above 100 µM; in assay [18] (K562, K-562, read-out: TGI (total growth inhibition concentration)), above 100 µM; in assay [19] (MDA-MB-468, read-out: TGI (total growth inhibition concentration)) it was above 100 µM; in assay [20] (A498, read-out: TGI (total growth inhibition concentration)) it was above 100 µM. Besides, the IC (TGI) in [21] (HT-29, read-out: TGI (total growth inhibition concentration)) is 10 µM; in assay [22] (HOP-92, HOP-92, read-out: TGI (total growth inhibition concentration)), above 100 µM; in assay [23] (PC-3, read-out: TGI (total growth inhibition concentration)), above 100 µM. In addition, the CC50 is above 100 µM in assay [17] (U-251, read-out: LD50 (lethal dose 50)); above 100 µM in assay [18] (K562, read-out: LD50 (lethal dose 50)); above 100 µM in [19] (MDA-MB-468, read-out: LD50 (lethal dose 50)); above 100 µM in assay [21] (HT-29, read-out: LD50 (lethal dose 50)). Also, the LC50 (lethal concentration 50%) in assay [20] (A498, read-out: LD50 (lethal dose 50)) was above 100 µM. Besides, the LD50 (lethal dose 50) in [22] (HOP-92, read-out: LD50 (lethal dose 50)) is above 100 µM.
